Consider eight molecules from paper PMC3317675 (International Journal of Molecular Sciences, 2012).

Test [1] deals with T1, mGAT1 (Mus musculus, UniProt P31648). Briefly: [3H]GABA uptake inhibition, stable CHO cells. In kind it is cell-based. Also noted: gene Slc6a1; full-length ORF in pcDNA3; no tag mentioned.
The target in test [2] is T2, mGAT2 (Mus musculus, UniProt P31649).
T2 sequence (P31649 1-602): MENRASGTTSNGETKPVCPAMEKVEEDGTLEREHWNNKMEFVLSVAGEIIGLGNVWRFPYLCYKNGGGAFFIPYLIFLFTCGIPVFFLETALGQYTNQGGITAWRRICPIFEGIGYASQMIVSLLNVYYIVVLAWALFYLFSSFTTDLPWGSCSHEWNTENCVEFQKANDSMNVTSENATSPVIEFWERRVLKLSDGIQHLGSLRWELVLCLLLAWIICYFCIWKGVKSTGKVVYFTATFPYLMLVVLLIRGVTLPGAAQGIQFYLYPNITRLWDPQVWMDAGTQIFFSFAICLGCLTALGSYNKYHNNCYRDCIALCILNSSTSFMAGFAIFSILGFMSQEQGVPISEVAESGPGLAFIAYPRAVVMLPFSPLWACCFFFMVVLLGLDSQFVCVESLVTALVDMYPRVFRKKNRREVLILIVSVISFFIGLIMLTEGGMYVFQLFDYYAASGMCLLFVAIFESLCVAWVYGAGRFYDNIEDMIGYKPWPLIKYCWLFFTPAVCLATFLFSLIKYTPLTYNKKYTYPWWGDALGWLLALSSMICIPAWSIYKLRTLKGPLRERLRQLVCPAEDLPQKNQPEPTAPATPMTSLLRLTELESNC
As to the kind of experiment: [3H]GABA uptake inhibition, stable CHO cells. In kind it is cell-based. Also noted: gene Slc6a13; RIKEN FANTOM cDNA in pcDNA3; no tag mentioned.

Test [3] concerns the target T3, mGAT3 (Mus musculus, UniProt P31650).
T3 sequence (P31650 1-627): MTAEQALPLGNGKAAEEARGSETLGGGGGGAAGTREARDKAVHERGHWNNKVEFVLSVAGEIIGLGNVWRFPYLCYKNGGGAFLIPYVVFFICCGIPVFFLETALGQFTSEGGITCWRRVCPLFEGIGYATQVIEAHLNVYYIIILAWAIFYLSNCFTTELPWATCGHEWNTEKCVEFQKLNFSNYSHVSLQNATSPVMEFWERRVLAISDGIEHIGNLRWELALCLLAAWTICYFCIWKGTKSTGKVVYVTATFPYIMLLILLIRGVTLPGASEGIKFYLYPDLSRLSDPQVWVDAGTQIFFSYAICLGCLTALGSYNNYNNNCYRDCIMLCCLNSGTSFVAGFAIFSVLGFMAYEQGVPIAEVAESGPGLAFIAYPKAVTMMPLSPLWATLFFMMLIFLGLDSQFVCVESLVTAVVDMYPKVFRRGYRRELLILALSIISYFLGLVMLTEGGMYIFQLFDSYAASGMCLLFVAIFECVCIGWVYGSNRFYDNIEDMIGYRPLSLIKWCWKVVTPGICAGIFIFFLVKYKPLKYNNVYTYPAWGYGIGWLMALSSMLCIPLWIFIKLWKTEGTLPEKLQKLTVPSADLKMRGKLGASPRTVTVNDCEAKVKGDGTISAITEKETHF
As to the kind of experiment: [3H]GABA uptake inhibition, stable CHO cells. It counts as cell-based. More on the design: gene Slc6a11; RIKEN FANTOM cDNA in pcDNA3; no tag mentioned.

Test [4] concerns the target T1, mGAT1. Briefly: cell-based. Also noted: gene Slc6a1.
Text: (§1) Those were designated CHO/mGAT1, CHO/mGAT2, CHO/mGAT3 and CHO/mBGT1. […] For uptake assays in cell lines stably expressing mouse GATs, CHO cells were transfected with cDNA using FuGENE6 transfection reagent according to the manufacturer’s directions, and subsequently cultured in the medium containing G418 to select positive clones.
Test [5] deals with T2, mGAT2. Briefly: cell-based. More on the design: gene Slc6a13.
Text: as §1
Test [6] addresses T3, mGAT3. As to the kind of experiment: cell-based. More on the design: gene Slc6a11.
Text: as §1
In another test the target is T4, rSERT (Rattus norvegicus, UniProt P31652).
T4 construct: gene Slc6a4; previously cloned cDNA; no tag mentioned
T4 sequence (P31652 whole entry): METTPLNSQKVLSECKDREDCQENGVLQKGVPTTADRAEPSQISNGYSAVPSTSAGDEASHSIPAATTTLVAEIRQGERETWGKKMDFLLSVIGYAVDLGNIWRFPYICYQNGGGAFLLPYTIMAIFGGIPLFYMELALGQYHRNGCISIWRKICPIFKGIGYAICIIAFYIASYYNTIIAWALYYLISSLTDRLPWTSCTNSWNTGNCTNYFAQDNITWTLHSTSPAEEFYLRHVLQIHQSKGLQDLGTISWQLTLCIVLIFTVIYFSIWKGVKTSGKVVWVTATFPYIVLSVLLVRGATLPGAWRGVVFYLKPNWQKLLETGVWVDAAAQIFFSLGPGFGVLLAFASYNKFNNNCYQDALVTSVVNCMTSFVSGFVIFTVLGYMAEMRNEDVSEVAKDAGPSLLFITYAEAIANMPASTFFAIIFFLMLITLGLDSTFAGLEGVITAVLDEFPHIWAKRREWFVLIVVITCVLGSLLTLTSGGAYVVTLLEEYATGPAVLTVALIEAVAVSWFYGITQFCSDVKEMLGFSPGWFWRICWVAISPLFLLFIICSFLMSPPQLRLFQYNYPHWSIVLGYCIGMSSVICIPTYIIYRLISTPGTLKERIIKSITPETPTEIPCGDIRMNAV
Briefly: [3H]5-HT uptake inhibition, stable CHO cells. It counts as cell-based.

Molecules are shown by their SMILES.

Regarding `CN(C)CCC=C1c2ccccc2CCc2ccccc21` [Amitriptyline], the 50% inhibitory concentration (IC50) against mGAT1 [1] is 101 ± 11.7 µM; against mGAT2 [2] it was 45.8 µM; at mGAT3 [3] it was 61.5 µM.
Take `C[N+](C)(C)CC(=O)O` [Betaine]: the IC50 at mGAT1 [4], against mGAT2 [5] and at mGAT3 [6] was above 10000 µM each time.
As to `CC(CN(C)C)CN1c2ccccc2CCc2ccccc21` (stereo not shown) [Trimipramine], the 50% inhibitory concentration (IC50) against rSERT turned out to be 5.89 µM; against mGAT1 [1], 181 ± 72.9 µM; against mGAT2 [2], 85.6 µM; against mGAT3 [3] it was 64.6 µM.
On to `CNCCCN1c2ccccc2CCc2ccccc21` [Desipramine], for which the IC50 on mGAT1 [1] is 268 ± 36.7 µM; against mGAT2 [2] it was 123 µM; against mGAT3 [3] it was 80.3 µM.
In the same order, the values of `CNCCC=C1c2ccccc2CCc2ccccc21` [Nortriptyline] are 136 ± 21.9 µM, 87.1 µM and 74.1 µM.
In the same order, the values of `CN(C)CCCN1c2ccccc2CCc2ccccc21` [Imipramine] are 223 ± 58.5 µM, 106 µM and 108 µM.
`NCCC(=O)O` [β-Alanine]: the IC50 at mGAT1 [4] is above 300 µM; against mGAT2 [5], 25 µM; on mGAT3 [6], 18 µM.
Turning to `CNCCCC1c2ccccc2C=Cc2ccccc21` [Protriptyline], the IC50 at mGAT1 [1] was determined as 167 ± 22.1 µM; against mGAT2 [2], 77.2 µM; at mGAT3 [3] it was 113 µM.
